Experimental data published in patent US12655184B2, “Labyrinthin-based peptides for cancer immunotherapies and uses thereof” (LABYRX IMMUNOLOGIC THERAPEUTICS (USA) LIMITED, priority 2018, dated 2026).
Ends that are not written are not given here.

Assays:
Type in all cases: physicochemical
[1] = solubility in phosphate buffer with/without 0.9% NaCl, pH serially lowered with acetic acid, concentration remaining in solution
Experimental: In further solubility testing, two tubes of 1.1 mg peptide for each of the four candidate peptides target was dissolved into 1 mL phosphate buffer (pH 10) (with and without 0.9% NaCl). The peptide solutions were subsequently stored at 4° C. for several hours to dissolve the peptides thoroughly. Following centrifugation, the peptide concentration that remained in solution was measured. The solubility of all four peptide candidates under all tested condition in Table 6 as above 0.3 mg/mL, and for each peptide candidate the variability of solubility across the pH ranges tested was minimal.

[2] = solubility by visual examination in ultrapure water, PBS and DMSO; details: for Solubility, PBS (pH 7.4): 0.1 M PBS pH 7.4, visual examination
Experimental: The solubility of each labyrinthin-derived peptide candidate was assessed by visual examination in ultrapure water, 0.1 M PBS (PBS; pH 7.4), and dimethyl sulfoxide (DMSO; analytical grade). As reported in Table 4, a solubility of less than 0.1 mg/mL of solvent was defined as “Undissolved” and solubility of greater than or 0.1 mg/mL was defined as “Dissolved.” The concentration range of measured solubility is provided under the “Dissolved” classification where available (Table 4).

[3] = solubility tests in DMSO, normal saline and 0.2 M NaCl by visual examination; details: for Solubility (dissolved Yes/No), 0.2M Sodium (NaCl): 0.2 M NaCl; for Solubility (dissolved Yes/No), 0.154M Sodium (NaCl): normal saline, 0.154 M NaCl
Experimental: Additional testing was completed to attempt to overcome the above-identified solubility issues. Results of the solubility tests performed for each labyrinthin-derived peptide candidate (SEQ ID NOS:29-32) are shown in Table 5. In short, all peptides were again dissolved in DMSO, confirming that the peptides had the capacity to dissolve in solution. Peptide solubility was then tested in normal saline (0.154 M sodium (NaCl)) and 0.2 M sodium (NaCl). Normal saline is generally an option as a solvent/diluent as use for such purpose is accepted by the […]. […] Additional solutions were tested to determine an alternative diluent to solubilize the candidate peptides, as determined by visual examination.

[4] = pH 4, PBS with 0.9% NaCl, pH 4, read-out: Solubility pH 4
[5] = pH 4, PBS without NaCl, pH 4, read-out: Solubility pH 4
[6] = pH 5, PBS with 0.9% NaCl, pH 5, read-out: Solubility pH 5
[7] = pH 5, PBS without NaCl, pH 5, read-out: Solubility pH 5
[8] = pH 5.5, PBS with 0.9% NaCl, pH 5.5, read-out: Solubility pH 5.5
[9] = pH 5.5, PBS without NaCl, pH 5.5, read-out: Solubility pH 5.5
[10] = pH 6, PBS with 0.9% NaCl, pH 6, read-out: Solubility pH 6
[11] = pH 6, PBS without NaCl, pH 6, read-out: Solubility pH 6
[12] = pH 6.5, PBS with 0.9% NaCl, pH 6.5, read-out: Solubility pH 6.5
[13] = pH 6.5, PBS without NaCl, pH 6.5, read-out: Solubility pH 6.5
[14] = pH 7, PBS with 0.9% NaCl, pH 7, read-out: Solubility pH 7
[15] = pH 7, PBS without NaCl, pH 7, read-out: Solubility pH 7
[16] = pH 7.5, PBS with 0.9% NaCl, pH 7.5, read-out: Solubility pH 7.5
[17] = pH 7.5, PBS without NaCl, pH 7.5, read-out: Solubility pH 7.5
[18] = pH 8, PBS with 0.9% NaCl, pH 8, read-out: Solubility pH 8
[19] = pH 8, PBS without NaCl, pH 8, read-out: Solubility pH 8
[20] = pH 8.5, PBS with 0.9% NaCl, pH 8.5, read-out: Solubility pH 8.5
[21] = pH 8.5, PBS without NaCl, pH 8.5, read-out: Solubility pH 8.5
[22] = pH 9, PBS with 0.9% NaCl, pH 9, read-out: Solubility pH 9
[23] = pH 9, PBS without NaCl, pH 9, read-out: Solubility pH 9
[24] = pH 10, PBS with 0.9% NaCl, pH 10, read-out: Solubility pH 10
[25] = pH 10, PBS without NaCl, pH 10, read-out: Solubility pH 10
[26] = DMSO analytical grade, visual examination, read-out: Solubility, DMSO
[27] = DMSO, read-out: concentration range of measured solubility, DMSO
[28] = pH 7.4, 0.1 M PBS pH 7.4, visual examination, read-out: Solubility, PBS (pH 7.4)
[29] = pH 7.4, 0.1 M PBS pH 7.4, read-out: concentration range of measured solubility, PBS (pH 7.4)
[30] = ultrapure water, visual examination
[31] = ultrapure water, visual examination, read-out: Solubility, Ultrapure water

| Sequence | solubility [1, 4] [µg/mL] | solubility [1, 5] [µg/mL] | solubility [1, 6] [µg/mL] | solubility [1, 7] [µg/mL] | solubility [1, 8] [µg/mL] | solubility [1, 9] [µg/mL] | solubility [1, 10] [µg/mL] | solubility [1, 11] [µg/mL] | solubility [1, 12] [µg/mL] | solubility [1, 13] [µg/mL] | solubility [1, 14] [µg/mL] | solubility [1, 15] [µg/mL] | solubility [1, 16] [µg/mL] | solubility [1, 17] [µg/mL] | solubility [1, 18] [µg/mL] | solubility [1, 19] [µg/mL] | solubility [1, 20] [µg/mL] | solubility [1, 21] [µg/mL] | solubility [1, 22] [µg/mL] | solubility [1, 23] [µg/mL] | further results |
| --- | --- | --- | --- | --- | --- | --- | --- | --- | --- | --- | --- | --- | --- | --- | --- | --- | --- | --- | --- | --- | --- |
| DMEEMMSEQENPDSSEPVVEDE [SEQ ID NO: 30] | 496 | 647 | 510 | 669 | 510 | 667 | 529 | 674 | 498 | 673 | 539 | 710 | 555 | 712 | 542 | 720 | 540 | 730 | 548 | 738 | solubility [1, 24]: 552 µg/mL; solubility [1, 25]: 726 µg/mL; solubility [2, 26]: > 100 µg/mL; solubility [2, 27]: ≤ 10000 µg/mL; solubility [2, 28]: > 100 µg/mL; solubility [2, 29]: ≤ 10000 µg/mL; Solubility, Ultrapure water [2, 30]: undissolved; solubility [2, 31]: < 100 µg/mL; Solubility (dissolved Yes/No), 0.2M Sodium (NaCl) [3]: Yes; Solubility (dissolved Yes/No), DMSO [3]: Yes; Solubility (dissolved Yes/No), 0.154M Sodium (NaCl) [3]: Yes |
| DSQVIVEEVSIFPVEEQQEVPPD [SEQ ID NO: 32] | 382 | 387 | 401 | 397 | 412 | 337 | 411 | 404 | 406 | 407 | 412 | 402 | 412 | 415 | 415 | 421 | 433 | 424 | 426 | 445 | solubility [1, 24]: 413 µg/mL; solubility [1, 25]: 419 µg/mL; Solubility, PBS (pH 7.4) [2]: did not improve solubility; solubility [2, 26]: > 100 µg/mL; solubility [2, 27]: ≤ 10000 µg/mL; solubility [2, 28]: < 100 µg/mL; Solubility, Ultrapure water [2, 30]: undissolved; solubility [2, 31]: < 100 µg/mL; Solubility (dissolved Yes/No), 0.2M Sodium (NaCl) [3]: Yes; Solubility (dissolved Yes/No), DMSO [3]: Yes; Solubility (dissolved Yes/No), 0.154M Sodium (NaCl) [3]: No; Solubility (dissolved Yes/No), 0.154M Sodium (NaCl) ([3]; listed as SEQ ID NO:32): did not dissolve |
| GEDLQQEDGPTGEPQQEDDEFL [SEQ ID NO: 29] | 687 | 731 | 694 | 738 | 695 | 738 | 695 | 742 | 706 | 753 | 701 | 748 | 703 | 757 | 707 | 756 | 702 | 762 | 707 | 757 | solubility [1, 24]: 708 µg/mL; solubility [1, 25]: 765 µg/mL; solubility [2, 26]: > 100 µg/mL; solubility [2, 28]: > 100 µg/mL; solubility [2, 29]: ≤ 10000 µg/mL; solubility [2, 31]: > 100 µg/mL; solubility ([2]; ultrapure water, read-out: concentration range of measured solubility, Ultrapure water): ≤ 10000 µg/mL; Solubility (dissolved Yes/No), 0.2M Sodium (NaCl) [3]: Yes; Solubility (dissolved Yes/No), DMSO [3]: Yes; Solubility (dissolved Yes/No), 0.154M Sodium (NaCl) [3]: Yes |
| NEGIEITEVTAPPEDNPVEDSQ [SEQ ID NO: 31] | 806 | 777 | 813 | 802 | 826 | 819 | 833 | 773 | 831 | 769 | 838 | 825 | 852 | 812 | 861 | 847 | 848 | 854 | 866 | 857 | solubility [1, 24]: 881 µg/mL; solubility [1, 25]: 849 µg/mL; Solubility, PBS (pH 7.4) [2]: did not improve solubility; solubility [2, 26]: > 100 µg/mL; solubility [2, 27]: ≤ 5000 µg/mL; solubility [2, 28]: < 100 µg/mL; Solubility, Ultrapure water [2, 30]: undissolved; solubility [2, 31]: < 100 µg/mL; Solubility (dissolved Yes/No), 0.2M Sodium (NaCl) [3]: Yes; Solubility (dissolved Yes/No), DMSO [3]: Yes; Solubility (dissolved Yes/No), 0.154M Sodium (NaCl) [3]: No; Solubility (dissolved Yes/No), 0.154M Sodium (NaCl) ([3]; listed as SEQ ID NO:31): did not dissolve |
